Tests used:
[1] = tested on: AMARE; assay: greenhouse pre-emergence herbicidal test; format: in vivo, Amaranthus retroflexus; conditions: pre-emergence method, scale from 0 to 100
Source text: (§1) The culture containers used were plastic flowerpots containing loamy sand with approximately 3.0% of humus as the substrate. The seeds of the test plants were sown separately for each species.
(§2) For the pre-emergence treatment, the active ingredients, which had been suspended or emulsified in water, were applied directly after sowing by means of finely distributing nozzles. The containers were irrigated gently to promote germination and growth and subsequently covered with transparent plastic hoods until the test plants had rooted.
(§3) This cover caused uniform germination of the test plants, unless this had been impaired by the active ingredients.
(§4) Depending on the species, the test plants were kept at 10-25° C. or 20-35° C., respectively.
(§5) The test period extended over 2 to 4 weeks. During this time, the test plants were tended, and their response to the individual treatments was evaluated.
(§6) Evaluation was carried out using a scale from 0 to 100. 100 means no emergence of the test plants, or complete destruction of at least the aerial moieties, and 0 means no damage, or normal course of growth. A good herbicidal activity is given at values of 70 to <90 and a very good herbicidal activity is given at values of 90 to 100.
(§7) The test plants used in the greenhouse experiments were of the following species: […]

[2] = tested on: APESV; assay: greenhouse pre-emergence herbicidal test; format: in vivo, Apera spica-venti; conditions: pre-emergence method, scale from 0 to 100
Source text: as §1, §2, §3, §4, §5, §6, §7

[3] = tested on: LOLMU; assay: greenhouse pre-emergence herbicidal test; format: in vivo, Lolium multiflorum; conditions: pre-emergence method, application rate 1.000 kg/ha, scale from 0 to 100
Source text: as §1, §2, §3, §4, §5, §6, §7

[4] = tested on: DIGSA; assay: greenhouse pre-emergence herbicidal test; format: in vivo, Digitaria sanguinalis; conditions: pre-emergence method, application rate 1.000 kg/ha, scale from 0 to 100
Source text: as §1, §2, §3, §4, §5, §6, §7

[5] = tested on: AMARE; assay: greenhouse post-emergence herbicidal test; format: in vivo, Amaranthus retroflexus; conditions: post-emergence method, application rate 1.000 kg/ha, scale from 0 to 100
Source text: as §1
(§8) For the post-emergence treatment, the test plants were first grown to a height of 3 to 15 cm, depending on the plant habit, and only then treated with the active ingredients which had been suspended or emulsified in water. For this purpose, the test plants were either sown directly and grown in the same containers, or they were first grown separately as seedlings and transplanted into the test containers a few days prior to treatment.
as §4, §5, §6, §7

[6] = tested on: AVEFA; assay: greenhouse post-emergence herbicidal test; format: in vivo, Avena fatua; conditions: post-emergence method, application rate 1.000 kg/ha, scale from 0 to 100
Source text: as §1, §8, §4, §5, §6, §7

[7] = tested on: SETVI; assay: greenhouse post-emergence herbicidal test; format: in vivo, Setaria viridis; conditions: post-emergence method, application rate 0.250 kg/ha, scale from 0 to 100
Source text: as §1, §8, §4, §5, §6, §7

[8] = tested on: ECHCG; assay: greenhouse pre-emergence herbicidal test; format: in vivo, Echinocloa crus-galli; conditions: pre-emergence method, scale from 0 to 100
Source text: as §1, §2, §3, §4, §5, §6, §7

[9] = tested on: SETVI; assay: greenhouse pre-emergence herbicidal test; format: in vivo, Setaria viridis; conditions: pre-emergence method, application rate 0.500 kg/ha, scale from 0 to 100
Source text: as §1, §2, §3, §4, §5, §6, §7

[10] = tested on: SETFA; assay: greenhouse pre-emergence herbicidal test; format: in vivo, Setaria faberi; conditions: pre-emergence method, application rate 0.500 kg/ha, scale from 0 to 100
Source text: as §1, §2, §3, §4, §5, §6, §7

[11] = tested on: ALOMY; assay: greenhouse post-emergence herbicidal test; format: in vivo, Alopercurus myosuroides; conditions: post-emergence method, scale from 0 to 100
Source text: as §1, §8, §4, §5, §6, §7

With `CC1=CCOC1(C(=O)O)C(=O)Nc1cc(Cl)cc(Cl)c1` (stereo not shown) [compound 1.6] the “herbicidal activity against AMARE” value ([1]; application rate 0.125 kg/ha) was “good (A good herbicidal activity is given at values of 70 to <90)” and the “herbicidal activity against APESV” value ([2]; application rate 0.125 kg/ha) was “good (A good herbicidal activity is given at values of 70 to <90)”.
For `O=C(O)C1(C(=O)Nc2cc(F)cc(F)c2)CC=CO1` (stereo not shown) [compound 1.26, 2-[(3,5-difluorophenyl)carbamoyl]-3H-furan-2-carboxylate], the “herbicidal activity against LOLMU” value [3] was “very good (a very good herbicidal activity is given at values of 90 to 100)”, the “herbicidal activity against DIGSA” value [4] was “very good (a very good herbicidal activity is given at values of 90 to 100)” and the “herbicidal activity against AMARE” value [5] was “good (A good herbicidal activity is given at values of 70 to <90)”. The “herbicidal activity against AVEFA” value [6] was “very good (a very good herbicidal activity is given at values of 90 to 100)”.
For `O=C(O)C1(C(=O)Nc2cc(F)cc(F)c2)CCO1` (stereo not shown) [compound 11.5], the “herbicidal activity against SETVI” value [7] was “very good (a very good herbicidal activity is given at values of 90 to 100)”.
For `CCOC(=O)C1(C(=O)Nc2cc(Cl)cc(Cl)c2)CCO1` (stereo not shown) [compound 11.1, ethyl 2-[(3,5-dichlorophenyl)carbamoyl]oxetane-2-carboxylate], the “herbicidal activity against APESV” value ([2]; application rate 1.000 kg/ha) was “good (A good herbicidal activity is given at values of 70 to <90)” and the “herbicidal activity against ECHCG” value ([8]; application rate 1.000 kg/ha) was “good (A good herbicidal activity is given at values of 70 to <90)”.
`CSCCOC(=O)C1(C(=O)Nc2cc(F)cc(F)c2)C=CCO1` (stereo not shown) [compound 1.9] was tested, and the “herbicidal activity against SETVI” value [9] was “very good (a very good herbicidal activity is given at values of 90 to 100)”.
In the case of “5-[(3,5-difluorophenyl)carbamoyl]-hydrofuran-5-carboxylic acid [compound 1.7]”, the “herbicidal activity against APESV” value ([2]; application rate 0.500 kg/ha) is reported as “very good (a very good herbicidal activity is given at values of 90 to 100)”, the “herbicidal activity against ECHCG” value ([8]; application rate 0.500 kg/ha) is reported as “good (A good herbicidal activity is given at values of 70 to <90)” and the “herbicidal activity against SETFA” value [10] is reported as “good (A good herbicidal activity is given at values of 70 to <90)”. The “herbicidal activity against ALOMY” value ([11]; application rate 0.500 kg/ha) was “very good (a very good herbicidal activity is given at values of 90 to 100)”.
With `CCOC(=O)C1(C(=O)Nc2cc(F)cc(F)c2)CC=CO1` (stereo not shown) [compound 1.25, ethyl 2-[(3,5-difluorophenyl)carbamoyl]-3H-furan-2-carboxylate] the “herbicidal activity against ALOMY” value ([11]; application rate 0.250 kg/ha) was “very good (a very good herbicidal activity is given at values of 90 to 100)”.
In the case of `CS(=O)(=O)CCOC(=O)C1(C(=O)Nc2cc(F)cc(F)c2)CCO1` (stereo not shown) [compound 11.8], the “herbicidal activity against AMARE” value ([1]; application rate 0.250 kg/ha) is reported as “good (A good herbicidal activity is given at values of 70 to <90)”.

Source: patent publication US20260000075A1, “HERBICIDAL MALONIC ACID MONOAMIDES AND MALONAMIDE ESTERS” (BASF SE, priority 2022, published 2026)
